pEC50, pIC50: −log10 of the molar value. The source made the active and inactive calls. The rule behind the calls is not given here.
Assays:
[1] = biological target: T1, Amine oxidase [flavin-containing] A (Homo sapiens, UniProt P21397); test: biochemical
T1 sequence (P21397 whole entry): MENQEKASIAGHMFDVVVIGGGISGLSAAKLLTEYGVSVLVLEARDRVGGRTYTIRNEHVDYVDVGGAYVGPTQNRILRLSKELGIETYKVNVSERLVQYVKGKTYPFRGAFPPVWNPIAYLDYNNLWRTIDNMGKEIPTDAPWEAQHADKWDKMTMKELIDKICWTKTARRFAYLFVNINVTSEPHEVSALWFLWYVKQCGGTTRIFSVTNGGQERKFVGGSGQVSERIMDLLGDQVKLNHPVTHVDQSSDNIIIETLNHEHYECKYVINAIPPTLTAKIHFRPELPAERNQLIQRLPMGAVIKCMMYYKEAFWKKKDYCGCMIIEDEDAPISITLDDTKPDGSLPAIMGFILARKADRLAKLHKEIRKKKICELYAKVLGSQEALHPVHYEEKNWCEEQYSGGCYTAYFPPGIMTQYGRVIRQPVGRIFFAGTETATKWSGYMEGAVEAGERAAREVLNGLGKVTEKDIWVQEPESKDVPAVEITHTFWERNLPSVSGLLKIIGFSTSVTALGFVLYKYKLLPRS
Description: Inhibition of human recombinant MAO-A expressed in baculovirus infected BTI insect cells using luminogenic MAO substrate incubated for 1 hr by luciferin-based luminescence assay

MV4-11 [2] = test: Antiproliferative activity against human MV4-11 cells assessed as inhibition of cell growth incubated for 240 hrs by MTS assay; type: functional, cell-based; conditions: MV4-11, 240 h
[3] = biological target: T2, Amine oxidase [flavin-containing] B (Homo sapiens, UniProt P27338); test: biochemical
T2 sequence (P27338 whole entry): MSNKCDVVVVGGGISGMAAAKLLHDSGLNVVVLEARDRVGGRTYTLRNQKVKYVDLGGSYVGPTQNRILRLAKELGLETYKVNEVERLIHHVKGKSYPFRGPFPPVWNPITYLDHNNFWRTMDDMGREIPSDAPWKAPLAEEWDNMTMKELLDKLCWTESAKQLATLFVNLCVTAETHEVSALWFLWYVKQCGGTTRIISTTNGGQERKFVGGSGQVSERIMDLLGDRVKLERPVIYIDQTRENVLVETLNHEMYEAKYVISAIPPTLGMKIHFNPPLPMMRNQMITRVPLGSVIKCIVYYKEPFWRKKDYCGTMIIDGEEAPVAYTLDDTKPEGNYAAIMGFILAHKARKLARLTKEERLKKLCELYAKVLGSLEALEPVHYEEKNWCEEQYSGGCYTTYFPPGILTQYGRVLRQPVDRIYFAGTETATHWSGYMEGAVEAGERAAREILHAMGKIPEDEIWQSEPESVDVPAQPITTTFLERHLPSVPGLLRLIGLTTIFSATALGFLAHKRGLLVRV
Description: Inhibition of human recombinant MAO-B expressed in baculovirus infected BTI insect cells using luminogenic MAO substrate incubated for 1 hr by luciferin-based luminescence assay

RPMI-8226 = test: Antiproliferative activity against human RPMI-8226 cells assessed as inhibition of cell growth incubated for 240 hrs by MTS assay; type: functional, cell-based; conditions: RPMI-8226, 240 h
MV4-11 [4] = test: In vivo antitumor activity against human MV4-11 cells xenografted in nu/nu mouse assessed as T/C ratio at 20 mg/kg,po qd measured after 15 days relative to control; type: functional; conditions: time 15 day
[5] = Metabolic stability in mouse hepatocytes at 3 uM incubated for 3 hrs by UPLC/Q-TOF MS analysis; type: ADME, cell-based, Hepatocyte
MV4-11 [6] = test: In vivo antitumor activity against human MV4-11 cells xenografted in nu/nu mouse assessed as tumor volume at 20 mg/kg, po qd measured on day 15 (reference value: 959 +/- 111 mm3); type: functional; conditions: time 15 day
[7] = Cmax in ICR mouse at 20 mg/kg, po measured upto 24 hrs by LC-MS/MS analysis; type: ADME, organism-based; parameters: time < 24 hrs, dose 20 mg/kg, route po; conditions: in vivo
MV4-11 [8] = test: Induction of differentiation of human MV4-11 cells assessed as morphological changes by measuring segmented nucleus at 2.5 uM incubated for 240 hrs by Wright-Giemsa staining based microscopy; type: functional, cell-based
MV4-11 [9] = test: Activation of CD86 expression in human MV4-11 cells incubated for 24 hrs by qRT-PCR analysis; type: functional, cell-based; conditions: MV4-11, 24 h
MV4-11 [10] = test: In vivo antitumor activity against human MV4-11 cells xenografted in nu/nu mouse assessed as tumor volume at 10 mg/kg, po qd measured on day 15 (reference value: 959 +/- 111 mm3); type: functional; conditions: time 15 day
[11] = Drug metabolism in human liver microsomes assessed as N-acetyl M2 metabolite formation at 3 uM incubated for 3 hrs by UPLC/Q-TOF MS analysis; type: ADME, Microsome
MV4-11 [12] = test: In vivo antitumor activity against human MV4-11 cells xenografted in nu/nu mouse assessed as T/C ratio at 10 mg/kg, po qd measured after 15 days relative to control; type: functional; conditions: time 15 day
MV4-11 [13] = test: In vivo antitumor activity against human MV4-11 cells xenografted in nu/nu mouse assessed as relative tumor volume at 20 mg/kg, po qd measured after 15 days (reference value: 6.85 +/- 1.84 ); type: functional; conditions: time 15 day
[14] = Half life in ICR mouse at 20 mg/kg, po measured upto 24 hrs by LC-MS/MS analysis; type: ADME, organism-based; conditions: in vivo
[15] = AUC (0 to infinity) in ICR mouse at 20 mg/kg, po measured upto 24 hrs by LC-MS/MS analysis; type: ADME, organism-based; parameters: dose 20 mg/kg, time < 24 hrs, route po; conditions: in vivo
[16] = Drug metabolism in monkey liver microsomes assessed as N-acetyl M2 metabolite formation at 3 uM incubated for 3 hrs by UPLC/Q-TOF MS analysis; type: ADME, Macaca mulatta, Microsome; conditions: rhesus monkey
[17] = Drug metabolism in monkey liver microsomes assessed as amino dealkylation of parent compound causing M1 metabolite formation at 3 uM incubated for 3 hrs by UPLC/Q-TOF MS analysis; type: ADME, Macaca mulatta, Microsome; conditions: rhesus monkey
MV4-11 [18] = test: In vivo antitumor activity against human MV4-11 cells xenografted in nu/nu mouse assessed as tumor volume at 20 mg/kg, po qd measured on day 1 (reference value: 154 +/- 53 mm3); type: functional; conditions: time 1 day
MV4-11 [19] = test: In vivo antitumor activity against human MV4-11 cells xenografted in nu/nu mouse assessed as relative tumor volume at 10 mg/kg, po qd measured after 15 days (reference value: 6.85 +/- 1.84 ); type: functional; conditions: time 15 day
MV4-11 [20] = test: In vivo antitumor activity against human MV4-11 cells xenografted in nu/nu mouse assessed as tumor volume at 10 mg/kg, po qd measured on day 1 (reference value: 154 +/- 53 mm3); type: functional; conditions: time 1 day
[21] = Metabolic stability in dog hepatocytes at 3 uM incubated for 3 hrs by UPLC/Q-TOF MS analysis; type: ADME, cell-based, Canis lupus familiaris, Hepatocyte
[22] = Metabolic stability in rat hepatocytes at 3 uM incubated for 3 hrs by UPLC/Q-TOF MS analysis; type: ADME, cell-based, Hepatocyte
MV4-11 [23] = test: Induction of differentiation of human MV4-11 cells assessed as morphological changes by measuring reduction in nuclear to cytoplasmic ratio at 2.5 uM incubated for 240 hrs by Wright-Giemsa staining based microscopy; type: functional, cell-based
[24] = Drug metabolism in human liver microsomes assessed as amino dealkylation of parent compound causing M1 metabolite formation at 3 uM incubated for 3 hrs by UPLC/Q-TOF MS analysis; type: ADME, Microsome

## CS(=O)(=O)N1CCc2cc(C3CC3NCC3CCNCC3)ccc21 (stereo not given)
[1]
  pIC50: < 4.00
MV4-11 [2]
  pIC50: 5.62
[3]
  pIC50: < 4.00

## O=C(N[C@@H](CCCCNC1CC1c1ccccc1)C(=O)NCc1ccc(Cl)cc1)c1ccc(-c2ccccc2)cc1 (stereo not given in full)
[1]
  pIC50: < 4.00
[3]
  pIC50: < 4.00

## N[C@H]1CC[C@H](CNC2CC2c2ccc3c(c2)CCN3S(=O)(=O)c2ccccc2)CC1 (stereo not given in full)
[1]
  pIC50: 4.02

## O=S(=O)(c1ccccc1)N1CCc2cc(C3CC3NCC3CCN(Cc4ccccc4)CC3)ccc21 (trans isomer)
[3]
  pIC50: < 4.00

## O=S(=O)(C1CCCCC1)N1CCc2cc(C3CC3NCC3CCNCC3)ccc21 (stereo not given)
[1]
  pIC50: < 4.00
[3]
  pIC50: < 4.00

## O=C(c1ccccc1)N1CCc2cc(C3CC3NCC3CCNCC3)ccc21 (trans isomer)
[1]
  pIC50: < 4.00
MV4-11 [2]
  pIC50: 5.38

## CCS(=O)(=O)N1CCc2cc(C3CC3NCC3CCNCC3)ccc21 (trans isomer)
[1]
  pIC50: < 4.00
MV4-11 [2]
  pIC50: 5.60
[3]
  pIC50: < 4.00

## CC(C)(C)C(=O)N1CCc2cc(C3CC3NCC3CCNCC3)ccc21 (trans isomer)
[1]
  pIC50: < 4.00
MV4-11 [2]
  pIC50: 5.91
RPMI-8226
  pIC50: < 4.70

## CCCC(=O)N1CCc2cc(C3CC3NCC3CCNCC3)ccc21 (stereo not given)
[1]
  pIC50: < 4.00
MV4-11 [2]
  pIC50: 4.72
[3]
  pIC50: < 4.00

## O=S(=O)(c1ccccc1)N1CCc2cc(C3CC3NCC3CCNCC3)ccc21 (stereo not given)
MV4-11 [4]
  Activity: 30.89%
[1]
  pIC50: < 4.00
MV4-11 [2]
  pIC50: 5.87
[5]
  Stability: Stable
MV4-11 [6]
  Activity: 334 mm3
[7]
  Cmax: 85.7 ng/mL
MV4-11 [8]
  Activity: Active
MV4-11 [9]
  pEC50: 6.33
MV4-11 [10]
  Activity: 522 mm3
[11]
  Drug metabolism: Metabolite_Detected
MV4-11 [12]
  Activity: 52.29%
MV4-11 [13]
  Activity: 2.12
RPMI-8226
  pIC50: < 4.70
[14]
  half-life: 5.32 h
[15]
  AUC: 619 ng·h/mL
[16]
  Drug metabolism: Metabolite_Detected
[17]
  Drug metabolism: Metabolite_Detected
MV4-11 [18]
  Activity: 157 mm3
MV4-11 [19]
  Activity: 3.58
MV4-11 [20]
  Activity: 156 mm3
[21]
  Stability: Stable
[22]
  Stability: Stable
[3]
  pIC50: < 4.00
MV4-11 [23]
  Activity: Active
[24]
  Drug metabolism: Metabolite_Detected

— ChEMBL document CHEMBL5154758, “Structure-Activity Relationship Study of Indolin-5-yl-cyclopropanamine Derivatives as Selective Lysine Specific Demethylase 1 (LSD1) Inhibitors” (J Med Chem, 2022)
